Laboratory results published in the NIST ThermoML archive (doi:10.1021/je0496950).

Experiment: mn = molality of the nth substance listed, in mol/kg
Conditions: 101 kPa, Liquid; for speed of sound: Pulse-echo method

[Cu+2].[O-][Cl+3]([O-])([O-])[O-].[O-][Cl+3]([O-])([O-])[O-] [copper perchlorate] + CC#N
Conditions | mass density, 288.13 K [kg/m3] | mass density, 293.15 K [kg/m3] | mass density, 298.15 K [kg/m3] | mass density, 303.15 K [kg/m3] | mass density, 308.15 K [kg/m3] | mass density, 313.15 K [kg/m3] | mass density, 323.15 K [kg/m3] | speed of sound, 298.15 K [m/s]
m1 = 0.0572 | 798.765 | 793.409 | 788.03 | 782.624 | 777.19 | 771.728 | 760.698 | –
m1 = 0.05724 | – | – | – | – | – | – | – | 1281.6
m1 = 0.1013 | 807.682 | 802.334 | 796.961 | 791.568 | 786.147 | 780.696 | 769.697 | 1284.3
m1 = 0.1335 | 814.263 | 808.919 | 803.556 | 798.17 | 792.754 | 787.314 | 776.342 | 1286.2
m1 = 0.1645 | 820.66 | 815.323 | 809.967 | 804.588 | 799.184 | 793.753 | 782.802 | 1288.2
m1 = 0.1975 | 827.568 | 822.238 | 816.887 | 811.516 | 806.117 | 800.692 | 789.754 | 1290
m1 = 0.2264 | 833.698 | 828.373 | 823.028 | 817.66 | 812.272 | 806.857 | 795.939 | 1291.8
m1 = 0.258 | 840.493 | 835.168 | 829.828 | 824.467 | 819.083 | 813.673 | 802.774 | 1293.7
m1 = 0.285 | 846.334 | 841.014 | 835.678 | 830.323 | 824.946 | 819.544 | 808.66 | 1295.4
m1 = 0.3172 | 853.453 | 848.137 | 842.806 | 837.456 | 832.084 | 826.687 | 815.817 | 1297.3

CC#N [acetonitrile] + [Co+2].[O-][Cl+3]([O-])([O-])[O-].[O-][Cl+3]([O-])([O-])[O-]
m2 = 0
Conditions | mass density [kg/m3]
288.13 K | 787.307
293.15 K | 781.933
298.15 K | 776.535
303.15 K | 771.114
308.15 K | 765.664
313.15 K | 760.181
323.15 K | 749.107

CC#N [acetonitrile] + [O-][Cl+3]([O-])([O-])[O-].[O-][Cl+3]([O-])([O-])[O-].[Zn+2]
m2 = 0
Conditions | mass density [kg/m3]
288.13 K | 787.312
293.15 K | 781.934
298.15 K | 776.535
303.15 K | 771.106
308.15 K | 765.649
313.15 K | 760.158
323.15 K | 749.07

[Mn+2].[O-][Cl+3]([O-])([O-])[O-].[O-][Cl+3]([O-])([O-])[O-] [manganese (II) perchlorate] + CC#N
Conditions | mass density, 288.15 K [kg/m3] | mass density, 293.15 K [kg/m3] | mass density, 298.15 K [kg/m3] | mass density, 303.15 K [kg/m3] | mass density, 308.15 K [kg/m3] | mass density, 313.15 K [kg/m3] | mass density, 323.15 K [kg/m3] | speed of sound, 298.15 K [m/s]
m1 = 0.07666 | – | – | – | – | – | – | – | 1282.8
m1 = 0.08738 | – | – | – | – | – | – | – | 1283.5
m1 = 0.1308 | 812.076 | 806.744 | 801.389 | 796.009 | 790.599 | 785.164 | 774.198 | 1286
m1 = 0.1732 | 820.267 | 814.947 | 809.604 | 804.238 | 798.846 | 793.424 | 782.485 | 1288.4
m1 = 0.216 | 828.628 | 823.32 | 817.989 | 812.633 | 807.252 | 801.843 | 790.933 | 1290.8
m1 = 0.257 | 836.778 | 831.471 | 826.148 | 820.803 | 815.431 | 810.032 | 799.145 | 1293
m1 = 0.298 | 845.062 | 839.769 | 834.455 | 829.123 | 823.764 | 818.379 | 807.522 | 1295.3
m1 = 0.3364 | 852.972 | 847.683 | 842.377 | 837.051 | 831.7 | 826.326 | 815.497 | 1297.9
m1 = 0.3745 | 860.854 | 855.574 | 850.277 | 844.96 | 839.624 | 834.26 | 823.454 | 1300.3
m1 = 0.4122 | 868.75 | 863.479 | 858.191 | 852.884 | 847.554 | 842.203 | 831.418 | 1302.7

CC#N [acetonitrile] + [Cu+2].[O-][Cl+3]([O-])([O-])[O-].[O-][Cl+3]([O-])([O-])[O-]
m2 = 0
Conditions | mass density [kg/m3]
288.13 K | 787.308
293.15 K | 781.932
298.15 K | 776.532
303.15 K | 771.102
308.15 K | 765.645
313.15 K | 760.155
323.15 K | 749.067

CC#N [acetonitrile] + [Ni+2].[O-][Cl+3]([O-])([O-])[O-].[O-][Cl+3]([O-])([O-])[O-]
m2 = 0
Conditions | mass density [kg/m3]
288.13 K | 787.307
293.15 K | 781.93
298.15 K | 776.53
303.15 K | 771.101
308.15 K | 765.645
313.15 K | 760.155
323.15 K | 749.068
